The source of these data is patent US9353088B2, “Crystalline pharmaceutical and methods of preparation and use thereof” (SARcode Bioscience Inc., priority 2009, dated 2016).

“Also recorded” adds a separate entry of the source.

A short description of series [1]: Pilot ocular tolerance of topically administered compound in dogs-PK. The settings on record: up to 10% strength at 3 doses/day. The format is in vivo.
Series [2] can be described thus: 13-week IV toxicity study with 4-week recovery. The series is classed as in vivo, rats. The settings on record: Day 1.
Series [3] in a line: Cardiovascular effects in conscious telemetry-instrumented dogs, IV bolus. The format is in vivo, dogs (beagles). The settings on record: IV bolus injection.
Series [4] is described as follows: Plasma PK after single topical ocular instillation. To be noted: post-dose.
Series [5] in a line: Solubility studies for dermal formulations. The series is classed as physicochemical.
The next series concerns the target T1, LFA-1 (Homo sapiens, UniProt P05107+P20701).
T1 construct: LFA-1 levels in in vitro cell assays (cell attachment and SEB IL-2 release); endogenous in cells; host or cells: human T-cell lines (HuT 78 / Jurkat) and human PBMC
In words: in vitro cell assays (cell attachment and SEB IL-2 release). The series is classed as cell-based.

Series [6] deals with attachment of Jurkat cells to ICAM-1. In words: T-cell adhesion assay using Jurkat cells. The settings on record: versus positive control. The format is cell-based, human. The procedure: A reported LFA-1 antagonist was used as the positive control.
Jurkat cells were labeled with an 8 μM solution of BCECF-AM (2′,7′-bis-(2-carboxyethyl)-5-(and -6)-carboxyfluorescein) in growth media at room temperature for 15 minutes. […] Non-adherent cells were removed by washing and centrifugation at 100 g for 1 minute. Adherent cells were determined as adherent fluorescent units on a fluorescent plate reader.

The nature of series [7]: CNS effects, single bolus IV injection. The format is in vivo, rats. The settings on record: 10.0 mg/kg IV, 1 minute to 6 hours postdose, 2/6 animals. From the text: No effect on any other parameters was observed.
Series [8] is described as follows: Plasma PK after single IV bolus dose. The series is classed as in vivo. To be noted: rat, rats, read-out: clearance rate. From the text: The systemic clearance rate can be calculated by various means known in the art. For example, the clearance rate for a drug may be calculated from an analysis of the drug concentration time profile for the rate of disappearance of a drug from the plasma following administration of the formulation, for example after a single intravenous injection. One of skill in the art could use a variety of methods to calculate and determine systemic clearance rates. For example, the rate of disappearance may be measured by analysis of the absorption, distribution, metabolism and excretion of a radiolabelled form of a drug or other means of measuring the level of drug in plasma, such as gas chromatography (Sapirstein et al., 1955, Am. Jour. Physiol., Vol. 181, pp. 330; U.S. Pat. No. 4,908,202), liquid chromatography-mass spectrometry methods (LCMS) or HPLC methods. As another example, the clearance rate may be calculated by introducing the formulation to the subject by continuous intravenous infusion until an equilibrium is reached at which the plasma level of the substance (as determined by analysis of plasma samples) is steady, at which point the infusion rate is equal to the rate of clearance from plasma (Earle et al., 1946, Proc. Soc. Exp. Biol. Med., Vol. 62, pp. 262 ff.) […]

The test system of series [9] is micronuclei in polychromatic erythrocytes (PCE). In words: In vivo mouse bone marrow micronucleus assay. Also on record: species or system CD-1 (ICR) BR mice. The settings on record: repeated IV administrations.
Series [10] has as its system Chinese hamster ovary (CHO) cells. In words: In vitro chromosomal aberration assay in CHO cells. The format is cell-based. To be noted: with and without metabolic activation; except single toxic dose 3500 μg/mL without activation. From the text:
The biological relevance of this response is equivocal due to cytotoxicity.

T1 sequence (P20701 26-1170): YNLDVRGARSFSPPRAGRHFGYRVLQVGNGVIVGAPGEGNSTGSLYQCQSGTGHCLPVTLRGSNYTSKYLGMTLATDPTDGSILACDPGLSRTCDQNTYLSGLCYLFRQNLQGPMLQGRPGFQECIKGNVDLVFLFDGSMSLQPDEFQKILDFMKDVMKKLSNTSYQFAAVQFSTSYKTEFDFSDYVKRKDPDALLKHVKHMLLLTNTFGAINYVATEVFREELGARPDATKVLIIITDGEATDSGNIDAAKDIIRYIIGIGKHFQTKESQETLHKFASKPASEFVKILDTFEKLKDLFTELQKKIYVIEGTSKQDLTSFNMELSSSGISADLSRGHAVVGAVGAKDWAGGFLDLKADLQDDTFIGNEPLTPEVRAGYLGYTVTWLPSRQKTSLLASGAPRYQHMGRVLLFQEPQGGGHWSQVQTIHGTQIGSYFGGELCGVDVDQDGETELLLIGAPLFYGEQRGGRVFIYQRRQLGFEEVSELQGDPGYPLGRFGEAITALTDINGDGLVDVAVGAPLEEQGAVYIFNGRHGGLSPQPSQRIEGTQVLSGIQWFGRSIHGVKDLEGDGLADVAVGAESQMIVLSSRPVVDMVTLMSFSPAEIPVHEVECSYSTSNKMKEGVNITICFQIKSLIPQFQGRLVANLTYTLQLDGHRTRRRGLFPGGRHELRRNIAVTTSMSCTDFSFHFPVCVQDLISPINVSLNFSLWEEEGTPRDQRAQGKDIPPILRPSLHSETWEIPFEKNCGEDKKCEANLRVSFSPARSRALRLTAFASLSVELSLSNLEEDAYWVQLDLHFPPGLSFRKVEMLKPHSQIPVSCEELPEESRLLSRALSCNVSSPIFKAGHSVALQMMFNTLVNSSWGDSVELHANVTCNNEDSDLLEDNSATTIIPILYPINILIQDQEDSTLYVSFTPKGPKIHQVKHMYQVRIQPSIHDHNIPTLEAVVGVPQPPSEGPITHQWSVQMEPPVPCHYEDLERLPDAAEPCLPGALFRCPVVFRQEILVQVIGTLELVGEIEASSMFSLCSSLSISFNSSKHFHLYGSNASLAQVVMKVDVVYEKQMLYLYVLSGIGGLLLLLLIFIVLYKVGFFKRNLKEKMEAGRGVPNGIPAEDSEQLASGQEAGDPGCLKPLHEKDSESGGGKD
T1 sequence (P05107 23-769): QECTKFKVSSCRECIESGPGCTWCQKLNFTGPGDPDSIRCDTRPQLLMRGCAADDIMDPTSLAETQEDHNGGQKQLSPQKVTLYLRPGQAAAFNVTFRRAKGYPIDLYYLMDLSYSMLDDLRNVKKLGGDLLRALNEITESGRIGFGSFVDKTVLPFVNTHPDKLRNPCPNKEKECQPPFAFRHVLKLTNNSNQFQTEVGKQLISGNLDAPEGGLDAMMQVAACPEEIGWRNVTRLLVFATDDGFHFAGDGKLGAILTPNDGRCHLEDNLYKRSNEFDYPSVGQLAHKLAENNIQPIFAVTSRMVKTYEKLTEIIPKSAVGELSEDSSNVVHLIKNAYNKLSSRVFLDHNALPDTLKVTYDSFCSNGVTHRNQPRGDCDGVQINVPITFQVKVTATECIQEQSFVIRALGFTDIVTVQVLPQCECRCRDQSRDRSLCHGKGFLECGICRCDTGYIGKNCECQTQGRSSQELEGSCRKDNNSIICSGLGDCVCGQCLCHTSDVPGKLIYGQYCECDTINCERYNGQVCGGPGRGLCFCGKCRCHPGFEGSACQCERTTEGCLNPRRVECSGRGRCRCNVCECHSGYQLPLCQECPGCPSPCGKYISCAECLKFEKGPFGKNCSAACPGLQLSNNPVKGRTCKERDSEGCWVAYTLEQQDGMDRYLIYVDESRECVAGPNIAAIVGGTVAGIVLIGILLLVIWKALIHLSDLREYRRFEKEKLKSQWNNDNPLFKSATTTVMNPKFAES

As for `CS(=O)(=O)c1cccc(C[C@H](NC(=O)c2c(Cl)cc3c(c2Cl)CCN(C(=O)c2ccc4ccoc4c2)C3)C(=O)O)c1` [Compound of Formula I], in series [1], the “ocular safety and tolerability” value was “safe and well tolerated”. Further, the Cmax (usually the maximum level reached in the sampled fluid or tissue) in series [2] (daily IV bolus 10 mg/kg) was 1045.3 ng/mL; in series [2] (daily IV bolus 30 mg/kg) it was 5117.3 ng/mL. Also, the AUC0-n in series [2] (daily IV bolus 30 mg/kg) is 2345.5 ng·h/mL. Also, in series [3], the “effects on electrocardiography or hemodynamic parameters” value was “No effects”. In [4], the “time of maximum plasma concentration” value is given as “about 0.25 hrs”. The figures for the solubility in series [5] (ethanol/glycol/transcutol solution) and in [5] (water/glycol/transcutol solution) were 10 % (w/w) and 2 % (w/w), respectively. Moreover, at LFA-1, the IC50 (commonly the concentration needed to halve the response being measured) worked out at 2 nM. Moreover, the “dose response curve and IC50, Jurkat cell attachment” value in series [6] is “comparable to that of the known direct competitive LFA-1 antagonist”. In addition, the CNS observations entry in series [7] was “Transient miosis”. For the same molecule, the clearance – broadly, the volume of plasma or blood freed of the substance per unit of time – in series [8] was more than 100 mL/min/kg. Besides, the “bone marrow micronucleus result” value in series [9] is recorded as “no effect; also recorded: negative”. For the same molecule, the “induction of structural chromosomal aberrations” value in series [10] was “negative”.
